Laboratory results taken from patent EP4678629A1, “IONIZABLE LIPID MOLECULE, PREPARATION METHOD THEREFOR AND USE THEREOF” (Maxirna (Shanghai) Pharmaceutical Co., Ltd., priority 2023, dated 2024).

How the values were obtained:
[1] = In vitro transfection of cells with eGFP-mRNA lipid nanoparticle (LNP preparation), fluorescence imaging and flow cytometry; type: cell-based, mouse; settings: mouse, dc2.4 cells, 200 ng of mRNA per well, after 24 hours; read-out: Cell viability, %
Excerpt: (§1) This example used mouse bone marrow-derived dendritic cells DC2.4 (purchased from Millipore) as the validation cell line for a lipid nanoparticle transfection experiment. DC2.4 cells adhered to the wall for growth. All operational steps of cell culture strictly followed the prescribed procedures, using sterile reagents for aseptic operations under a sterile workbench. The main operational steps involved were as follows: • 1) Cell recovery: the preserved cell cryopreservation solution was removed from the -80 °C freezer and immediately placed in a 37 °C water bath for rapid and continuous shaking, allowing it to completely melt within one minute. Fresh culture medium was added to a 15 mL centrifuge tube in advance, and the cell fluid was added to the centrifuge tube in a biosafety cabinet. A centrifuge tube of the same mass was taken, placed symmetrically in the centrifuge, and centrifuged at low speed for 5 minutes at 1200 rpm. After centrifugation, the upper clear liquid was removed, and an appropriate amount of culture medium was slowly added along the tube wall. After the cells were gently blown and dispersed evenly, the cell suspension was drawn and added to the prepared culture bottle. The state and distribution of cells in the early stage of recovery were observed under a microscope. The culture bottle was incubated in a 5% CO2 incubator at 37 °C, and the recovery time was recorded. • 2) Cell passaging: Under a microscope, if the cell density in the field of view reached 80%-90%, cells could be passaged and cultured. Adherent cells required trypsin digestion. In order to avoid residual serum in the culture medium reducing trypsin activity, the original culture medium was removed, and DPBS solution was added to wash once. After suctioning out the DPBS solution, trypsin was added to degrade the protein at the intercellular junction, thereby separating the cells and facilitating further cultivation. The mixture was gently shaken well and placed into the incubator for digestion for 2-3 minutes. After digestion was complete, an appropriate amount of culture medium was immediately added to the original culture dish to terminate digestion. Finally, a pipette was used to carefully blow off the cells and blow them until they were evenly dispersed, and then the cells were inoculated and subcultured in a certain proportion according to experimental requirements.
(§2) Transfection of DC2.4 cells • 1) DC2.4 cell recovery: the frozen DC2.4 cells were taken out from the -80 °C refrigerator and immediately put into a 37 °C water bath for rapid thawing. After melting, they were added to the preheated culture medium, and centrifuged at 1200 rpm for 5 minutes. The supernatant was discarded, and an appropriate amount of DMEM medium containing 10% FBS was added to resuspend the recovered DC2.4 cells, which were placed in a 37 °C, 5% CO2 incubator for activation culture. • 2) According to experimental requirements, DC2.4 cells were transfected into 24 well plates one day in advance. By counting cells, the number and viability of cells were recorded, and a cell suspension with 2 × 10^5 cells per well were taken. Then, a certain volume of DMEM medium containing 10% FBS was added and mixed evenly, wherein 1 mL was added per well for subsequent transfection experiments. • 3) After 24 hours, the culture medium was gently aspirated with a pipette 30 minutes in advance, and each well was washed with 1 mL of DPBS and aspirated. […] The mixture was placed in a 37 °C, 5% CO2 incubator for activation cultivation. • 6) After 24 hours, cell viability (%), eGFP positivity rate (%), and mean fluorescence intensity data were obtained through cell fluorescence imaging and flow cytometry.

[2] = test system: DC2.4 cells; test: as above; type: cell-based, mouse; settings: eGFP positivity rate, DC2.4 cells, 200 ng of mRNA per well, after 24 hours
Excerpt: as §1, §2

[3] = Size and polydispersity index (PDI) of the lipid nanoparticle by dynamic light scattering; type: physicochemical; settings: LNP encapsulating eGFP mRNA, ionizable lipid/DOPE/cholesterol/DMG-PEG2000 50/10/48.25/1.25 mol%, N/P 12; for Particle size: in nm (unit assumed)
Experimental: (§3) The ionizable lipid compound and positive control 1 from Example I were dissolved in ethanol at a molar ratio of 50:10:48.25:1.25 with DOPE, cholesterol, and DMG-PEG2000 (all purchased from A.V.T (Shanghai) Pharmaceutical Co., Ltd.) to prepare an ethanol lipid solution. The enhanced green fluorescent protein (eGFP) mRNA was diluted in 20 mM citrate buffer (pH=6.1) to obtain an mRNA aqueous solution. By using a microfluidic device (Micro&Nano Biologics Co., Ltd., model: INano ™ L) mix ethanol lipid solution and mRNA aqueous solution in a volume ratio of 1:3 to prepare a lipid nanoparticle with a total lipid to mRNA N/P ratio of 12. The medium was replaced by ultrafiltration, ethanol was removed and volumed with DPBS. Finally, the lipid nanoparticle was filtered through a 0.2 µm sterile filter to obtain an LNP preparation encapsulating eGFP mRNA using ionizable lipid/DOPE/cholesterol/DMG-PEG2000 (50/10/48.25/1.25 mol%), with an mRNA content of 0.002 mg/ml-0.5 mg/mL.
(§4) Using Malvern Zetasizer Nano ZS (Malvern UK), the size and polydispersity index (PDI) of the lipid nanoparticle were determined by dynamic light scattering in 173° backscatter detection mode, and the encapsulation efficiency was measured by Ribogreen method.

[4] = Encapsulation efficiency of the lipid nanoparticle (eGFP mRNA) by Ribogreen method; type: physicochemical; settings: LNP encapsulating eGFP mRNA, ionizable lipid/DOPE/cholesterol/DMG-PEG2000 50/10/48.25/1.25 mol%, N/P 12
Experimental: as §3, §4

Structure (SMILES) | viability at 24 h [1] | Positive rate, % [2] | PDI [3] | Encapsulation rate, % [4] | Particle size [3]
CCCCCC/C=C\COC(=O)CCCCCCCN(CCO)CCCN(CCCCCCCC(=O)OC/C=C\CCCCCC)CCCCCCCC(=O)OC/C=C\CCCCCC [Example 6, Di((Z)-non-2-en-1-yl)8,8'-((3-((2-hydroxyethyl)(8-(((Z)-non-2-en-1-yl)oxo)-8-oxooctyl)amino)propyl)azanediyl)dioctanoate] | 80.5% | 85.29% | 0.13 | 92.30% | –
CC/C=C\C/C=C\CCCOC(=O)CCCCCCCN(CCO)CCCN(CCCCCCCC(=O)OCCC/C=C\C/C=C\CC)CCCCCCCC(=O)OCCC/C=C\C/C=C\CC [Example 7, Di((4Z,7Z)-dec-4,7-dien-1-yl)8,8'-((3-((8-(((4Z,7Z)-dec-4,7-dien-1-yl)oxo)-8-oxooctyl)(2-hydroxyethyl)amino)propyl)azanediyl)dioctanoate] | 76.9% | 75.68% | 0.09 | 86.64% | –
CC/C=C\CCCCCOC(=O)CCCCCCCN(CCO)CCCN(CCCCCCCC(=O)OCCCCC/C=C\CC)CCCCCCCC(=O)OCCCCC/C=C\CC [Example 8, Di((Z)-non-6-en-1-yl)8,8'-((3-((2-hydroxyethyl)(8-(((Z)-non-6-en-1-yl)oxo)-8-oxooctyl)amino)propyl)azanediyl)dioctanoate] | 63.2% | 82.12% | 0.21 | 80.59% | –
CCCCCCCCCOC(=O)CCCCCCCN(CCO)CCCN(CCCCCCCC(=O)OCCCCCCCCC)CCCCCCCC(=O)OCCCCCCCCC [Example 9, Dinonyl 8,8'-((3-((2-hydroxyethyl)(8-(nonoxy)-8-oxooctyl)amino)propyl)azanediyl)dioctanoate] | 55.6% | 83.84% | 0.22 | 78.69% | –
CC/C=C\COC(=O)CCCCCCCN(CCO)CCCN(CCCCCCCC(=O)OC/C=C\CC)CCCCCCCC(=O)OC/C=C\CC [Example 10, Di((Z)-pent-2-en-1-yl)8,8'-((3-((2-hydroxyethyl)(8-oxo-8-(((Z)-pent-2-en-1-yl)oxo)octyl)amino)propyl)azanediyl)dioctanoate] | 95% | 95.39% | 0.14 | 89.02% | 90.73
CCCCCCCCCCCCCOC(=O)CCCCCCCN(CCO)CCCN(CCCCCCCC(=O)OCCCCCCCCCCCCC)CCCCCCCC(=O)OCCCCCCCCCCCCC [Example 13, Ditridecyl 8,8'-((3-((2-hydroxyethyl)(8-oxo-8-(tridecyloxy)octyl)amino)propyl)azanediyl)dioctanoate] | 91.3% | 93.23% | 0.21 | 96.34% | –
CCCCCCCCCCCOC(=O)CCCCCCCCCN(CCO)CCCN(CCCCCCCCCC(=O)OCCCCCCCCCCC)CCCCCCCCCC(=O)OCCCCCCCCCCC [Example 14, Diundecyl 10,10'-((3-((2-hydroxyethyl)(10-oxo-10-(undecyloxy)decyl)amino)propyl)azanediyl)dicaprate] | 97.9% | 95.61% | 0.21 | 97.23% | 98.45
CCCCCC/C=C\COC(=O)CCCCCCCCCN(CCO)CCCN(CCCCCCCCCC(=O)OC/C=C\CCCCCC)CCCCCCCCCC(=O)OC/C=C\CCCCCC [Example 15, Di((Z)-non-2-en-1-yl)10,10'-((3-((2-hydroxyethyl)(10-(((Z)-non-2-en-1-yl)oxo)-10-oxodecyl)amino)propyl)azanediyl)dicaprate] | 84.4% | 91.39% | 0.20 | 90.28% | –
CCCCCC/C=C\COC(=O)CCCN(CCO)CCCN(CCCC(=O)OC/C=C\CCCCCC)CCCC(=O)OC/C=C\CCCCCC [Example 16, Di((Z)-non-2-en-1-yl)4,4'-((3-((2-hydroxyethyl)(4-(((Z)-non-2-en-1-yl)oxo)-4-oxobutyl)amino)propyl)azanediyl)dibutanoate] | 84.6% | 94.18% | 0.18 | 86.73% | 99.65
CCC/C=C\COC(=O)CCCCCCCN(CCO)CCCN(CCCCCCCC(=O)OC/C=C\CCC)CCCCCCCC(=O)OC/C=C\CCC [Example 17, Di((Z)-hexyl-2-en-1-yl)8,8'-((3-((8-(((Z)-hexyl-2-en-1-yl)oxo)-8-oxooctyl)(2-hydroxyethyl)amino)propyl)azanediyl)dioctanoate] | 71.1% | 95.88% | 0.26 | 90.04% | –
CCCCCCCCCCCOC(=O)CCCCCCCN(CCCO)CCCN(CCCCCCCC(=O)OCCCCCCCCCCC)CCCCCCCC(=O)OCCCCCCCCCCC [Example 18, Diundecyl 8,8'-((3-((3-hydroxypropyl)(8-oxo-8-(undecyloxy)octyl)amino)propyl)azanediyl)dioctanoate] | 90.6% | 96.79% | 0.25 | 88.82% | –
CCCCCC/C=C\COC(=O)CCCCCCCN(CCCO)CCCN(CCCCCCCC(=O)OC/C=C\CCCCCC)CCCCCCCC(=O)OC/C=C\CCCCCC [Example 19, Di((Z)-non-2-en-1-yl)8,8'-((3-((3-hydroxypropyl)(8-(((Z)-non-2-en-1-yl)oxo)-8-oxooctyl)amino)propyl)azanediyl)dioctanoate] | 95.6% | 97.44% | 0.26 | 92.54% | –
CCCCCCCCCCCOC(=O)CCCCCCCN(CCCCO)CCCN(CCCCCCCC(=O)OCCCCCCCCCCC)CCCCCCCC(=O)OCCCCCCCCCCC [Example 20, Diundecyl 8,8'-((3-((4-hydroxybutyl)(8-oxo-8-(undecyloxy)octyl)amino)propyl)azanediyl)dioctanoate] | 83.8% | 93.27% | 0.18 | 79.02% | 89.98
CCCCCCCCCCCCCCCOC(=O)CCCCCCCN(CCO)CCCN(CCCCCCCC(=O)OCCCCCCCCCCCCCCC)CCCCCCCC(=O)OCCCCCCCCCCCCCCC [Example 22, Dipentadecyl 8,8'-((3-((2-hydroxyethyl)(8-oxo-8-(pentadecyloxy)octyl)amino)propyl)azanediyl)dioctanoate] | 95.1% | 98.21% | 0.11 | 78.46% | –
CCCCCCCCCCCOC(=O)CCCCCCCCCCCN(CCO)CCCN(CCCCCCCCCCCC(=O)OCCCCCCCCCCC)CCCCCCCCCCCC(=O)OCCCCCCCCCCC [Example 23, Diundecyl 12,12'-((3-((2-hydroxyethyl)(12-oxo-12-(undecyloxy)dodecyl)amino)propyl)azanediyl)didodecanoate] | 87.5% | 92.1% | 0.26 | 92.58% | –
